From US20100111874A1, “METHOD OF CANCER DETECTION AND TREATMENT” (University of Medicine and Dentistry of New Jresey, priority 2007, published 2010) come the findings set out here.

The target of one assay is T1, TOP1 (Homo sapiens, UniProt P11387).
T1 construct: endogenous in cells; host or cells: ZR-75-1 and its shRNA clones
T1 sequence (P11387 1-765): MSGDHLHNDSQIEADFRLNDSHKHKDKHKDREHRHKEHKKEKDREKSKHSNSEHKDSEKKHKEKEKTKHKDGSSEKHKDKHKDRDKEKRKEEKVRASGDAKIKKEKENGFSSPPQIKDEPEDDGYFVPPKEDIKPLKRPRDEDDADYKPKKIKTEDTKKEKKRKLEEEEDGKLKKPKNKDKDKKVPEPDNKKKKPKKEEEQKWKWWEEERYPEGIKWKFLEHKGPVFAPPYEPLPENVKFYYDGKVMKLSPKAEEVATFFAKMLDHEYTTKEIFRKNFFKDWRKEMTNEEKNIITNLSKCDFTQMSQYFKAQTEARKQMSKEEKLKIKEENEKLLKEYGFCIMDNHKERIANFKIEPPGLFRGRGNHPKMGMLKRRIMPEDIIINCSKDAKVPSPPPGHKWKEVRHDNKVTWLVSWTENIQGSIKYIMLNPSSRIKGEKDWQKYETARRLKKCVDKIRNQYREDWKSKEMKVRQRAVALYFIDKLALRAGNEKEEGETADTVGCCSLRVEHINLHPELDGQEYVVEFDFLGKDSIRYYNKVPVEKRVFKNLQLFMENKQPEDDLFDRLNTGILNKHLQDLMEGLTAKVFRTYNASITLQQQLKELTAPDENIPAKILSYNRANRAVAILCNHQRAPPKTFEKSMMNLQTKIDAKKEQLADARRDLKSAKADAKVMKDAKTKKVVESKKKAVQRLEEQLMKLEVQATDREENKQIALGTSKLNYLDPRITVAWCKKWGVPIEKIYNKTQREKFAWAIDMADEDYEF
Put plainly: Immunoblotting assay for CPT-induced TOP1 degradation. The format is cell-based. Particulars: CPT 25 μM. As for the experimental part:
Band depletion assay for TOP1 cleavage complexes. Cells (106/sample) are treated with CPT (25 μM in 1% DMSO) for various times at 37° C. Cells are then lysed with 0.2 N NaOH containing 2 mM EDTA as described previously (14). Cell lysates are then neutralized with 1/10 volume of a solution containing 10% NP-40, 1 M Tris (pH 7.4), 0.1 M MgCl2, 0.1 M CaCl2, 10 mM dithiothreitol, 1 mM EGTA, and a mixture of peptide protease inhibitors (100 μg/ml each of leupeptin, pepstatin, and aprotinin), followed by the addition of another 1/10 volume of 2 N HCl. Reactions are terminated by the addition of SDS-PAGE sample buffer. Immunoblotting analysis of cell lysates is carried out using anti-Scl-70 antibody from scleroderma patients as described above.
Immunoblotting assay for CPT-induced TOP1 degradation. Cells are prepared for immunoblotting as described above with two modifications. First, cells are incubated in CPT-free medium for 30 min prior to lysis (to reverse TOP1 cleavage complexes and to de-conjugate TOP1-ubiquitin and TOP1-UBL conjugates). Second, neutralized cell lysates are incubated with Staphylococcus aureus nuclease S7 (60 U/reaction) for 20 min on ice (to release TOP1 from residual TOP1-DNA covalent complexes) prior to termination with SDS-PAGE sample buffer.
Example No. 3. […] Panel A, Reduced ISG15 expression in ZR-75-1 cells expressing ISG15 shRNA. Cell lysates of ZR-75-1 clones expressing either control shRNA (lane #1) or ISG15 shRNA (lanes #2) are analyzed by 15% SDS-PAGE. Western blotting analysis is performed using anti-ISG15 antisera (upper panel). […] Panel B, CPT sensitivity. Clonogenic survival assay is carried out as described in Materials and Methods. Colonogenic survival curves of a ZR-75-1 clone expressing control shRNA and ISG15 shRNA after CPT treatment is shown. Mean±SD values from at least two experiments are presented. Panel C, CPT-induced TOP1 down-regulation. ZR-75-1 cells stably transfected with control shRNA (lanes 1-4) or ISG15 shRNA (lanes #5-8) (10^6 cells/sample) are treated with either DMSO (lanes #1 and 5) or CPT (25 μM in 1% DMSO) (lanes #2-4 and 6-8) for various times at 37° C. Subsequently, cells are placed in fresh CPT-free media for 30 min to reverse cleavable complexes. Cell lysis and immunoblotting using anti-hTOP1 antisera are carried out as described in FIG. 1 (upper panels).
Example No. 4. […] Panel A, the reduced UbcH8 protein level in ZR-75-1 cells expressing UbcH8 shRNA. Cell lysates prepared from ZR-75-1 clones expressing either control shRNA (lane #1) or UbcH8 shRNA (lanes #2 and 3, from two independent clones), and the purified UbcH8 protein (lane #4) are analyzed by 15% SDS-PAGE. Western blotting analysis is performed using anti-UbcH8 antibody (Abeam). […] Panel B, UbcH8 shRNA decreases ISG15 conjugation in ZR-75-1 cells. Cell lysates prepared from ZR-75-1 clones expressing either control shRNA (lane #1) or UbcH8 shRNA (lanes #2 and 3, two independent clones), and the purified UbcH8 protein (lane #4) are analyzed by 15% SDS-PAGE. Western blotting analysis is performed using anti-ISG15 antibody. The non-specific bands are due to the crossreactivity of the ISG15 antibody to bovine serum albumin. Panel C, knocking down UbcH8 confers CPT resistance. ZR-75-1 clones expressing control shRNA and UbcH8 shRNA (two independent clones) are treated with CPT and cell survival is measured as described in Example 3. Panels D-F, CPT-induced TOP1 down-regulation is […] in ZR-75-1 cells expressing UbcH8 shRNA. Clonal cells of ZR-75-1 expressing control (panel D) or UbcH8 shRNA (panels E and F, representing two independent clones) (10^6/sample) are treated with either DMSO (lanes #1, 5, and 9) or CPT (25 μM in 1% DMSO) (lanes #2-4, 6-8, and 10-12) for various times at 37° C. Cells are then placed in fresh CPT-free media for 30 min to reverse cleavage complexes. Cell lysis and immunoblotting using anti-hTOP1 antibody are carried out as described in Example 1.
A general note: Immunoblotting shows a protein as a band on a membrane.

Assay [1] deals with ZR-75-1 and BT474 breast cancer cells. As to the kind of experiment: Cell counting assay of CPT sensitivity. The format is cell-based. Particulars: ZR-75-1 vs BT474 cells; one hr acute exposure.
Experimental: Cell survival assays. MTT assay: Cells (3000 cells/well) are plated in 96-well microtiter plates and incubated at 37° C. in a CO2 incubator. For determination of IC50, cells are treated with varying concentrations of CPT for four days. Cells are then incubated with MTT (3-(4,5-dimethylthiazol-2-yl)-2,5-diphenyltetrazolium bromide) for 4 hrs at 37° C. The dye produced by viable cells is dissolved in DMSO and the optical density measured at 570 nm. All assays are performed at least twice in six replicate wells. Clonogenic assay: Cells (100-500 cells/plate) are plated in 6-well tissue culture plates and incubated at 37° C. in a CO2 incubator. Cells are then treated with various concentrations of CPT for 1 hr. Following CPT treatment, cells are washed free of CPT and placed in fresh medium. After 10 days, survived colonies are stained with Methylene blue and counted using the Minicount machine. Cell counting assay: Logarithmically growing cells are treated with various concentrations of CPT for 1 hr. CPT is then removed by washing the plates with CPT-free medium four times. […] Cell survival is determined by counting cells using the Coulter counter after trypsinization.
Breast cancer ZR-75-1 and BT474 cells are treated with CPT for 1 hr followed by incubation in CPT-free medium for 3 days. Cell survival is determined by cell counting using a Coulter counter as described in Materials and Methods.

Take `CC[C@@]1(O)C(=O)OCc2c1cc1n(c2=O)Cc2cc3ccccc3nc2-1` [CPT, camptothecin]: the TOP1 down-regulation result on TOP1 (MCF7/RC cells) is on record as “increased”; on TOP1 (ZR/ISG15-shRNA1 cells, 2 hrs), “about 50%”; at TOP1 (ZR/control-shRNA1 cells), “minimal”; at TOP1 (ZR/control-shRNA2 cells), “minimal”; at TOP1 (parental MCF7 cells), “minimal”. Further, the “degradation of TOP1” value is “about 50%” at TOP1 (ZR/UbcH8-shRNA1 cells, 2 hrs) and “about 50%” on TOP1 (ZR/UbcH8-shRNA2 cells, 2 hrs). For the same compound, in assay [1], the “fold greater sensitivity to CPT based on IC50 values” is reported as “greater than 50 fold”.
